Each molecule was assayed against T1, TLR7/NFKb HEK cells (Homo sapiens, UniProt Q9NYK1) (assay: HEK Cell Assay (TLR7/NFKb reporter, Steady-Glo luciferase readout)). Conditions: 30 min compound preincubation, then R*48 agonist for 5 hours, read-out: Potency.
T1 construct: expressed in transfected cells; host or cells: HEK cells (TLR7/NFKb reporter line)
T1 sequence (Q9NYK1 27-1049): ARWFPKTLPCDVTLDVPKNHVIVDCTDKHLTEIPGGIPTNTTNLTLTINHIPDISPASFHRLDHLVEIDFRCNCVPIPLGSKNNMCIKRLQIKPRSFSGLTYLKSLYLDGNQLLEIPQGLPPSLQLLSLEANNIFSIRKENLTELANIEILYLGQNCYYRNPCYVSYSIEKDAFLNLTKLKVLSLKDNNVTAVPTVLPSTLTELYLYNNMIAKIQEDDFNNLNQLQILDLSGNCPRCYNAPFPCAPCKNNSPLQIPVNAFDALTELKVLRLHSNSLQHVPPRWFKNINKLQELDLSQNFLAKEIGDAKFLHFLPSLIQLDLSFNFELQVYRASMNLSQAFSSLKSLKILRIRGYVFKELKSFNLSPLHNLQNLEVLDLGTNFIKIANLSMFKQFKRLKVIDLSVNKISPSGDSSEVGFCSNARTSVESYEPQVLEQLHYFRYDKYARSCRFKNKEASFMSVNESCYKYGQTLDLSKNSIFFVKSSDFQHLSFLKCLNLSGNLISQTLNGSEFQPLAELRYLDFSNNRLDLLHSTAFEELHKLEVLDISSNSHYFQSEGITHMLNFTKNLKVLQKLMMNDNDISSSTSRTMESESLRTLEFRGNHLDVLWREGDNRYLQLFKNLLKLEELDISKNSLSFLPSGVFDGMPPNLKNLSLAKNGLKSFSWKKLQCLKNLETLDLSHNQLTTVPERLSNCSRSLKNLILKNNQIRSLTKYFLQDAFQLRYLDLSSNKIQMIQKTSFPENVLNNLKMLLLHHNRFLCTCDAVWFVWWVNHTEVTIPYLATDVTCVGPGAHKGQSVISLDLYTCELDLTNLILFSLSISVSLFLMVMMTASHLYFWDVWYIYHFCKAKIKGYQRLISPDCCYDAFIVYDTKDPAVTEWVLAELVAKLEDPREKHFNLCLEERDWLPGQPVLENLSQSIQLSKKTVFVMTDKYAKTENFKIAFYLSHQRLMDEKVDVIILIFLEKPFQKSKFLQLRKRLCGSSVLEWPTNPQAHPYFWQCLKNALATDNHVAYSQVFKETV
Assay type: cell-based
Outline: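 Steady-Glo luminescence after 5 h stimulation with R*48 agonist, following 30 min compound preincubation. Assay run in HEK cells carrying a TLR7/NFKb luciferase reporter, plated at 5000 cells/well and grown 24 h at 37° C (10% CO2) before treatment.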

Compound	IC50 [nM]
CC(O)C(=O)N[C@@H]1C[C@H](C)CN(c2ccc(C(F)(F)F)c3nccnc23)C1 (stereo partly drawn) [Compound 292, 2-hydroxy-N-[(3R,5S)-5-methyl-1-[8-(trifluoromethyl)quinoxalin-5-yl]piperidin-3-yl]propanamide]	1000 to 10000
CC(C(=O)N[C@@H]1C[C@H](C)CN(c2ccc(C(F)(F)F)c3nccnc23)C1)N1CC(F)(F)C1 (stereo partly drawn) [Compound 299, 2-(3,3-difluoroazetidin-1-yl)-N-[(3R,5S)-5-methyl-1-[8-(trifluoromethyl)quinoxalin-5-yl]piperidin-3-yl]propanamide]	1000 to 10000
CC(O)C(=O)N[C@@H]1C[C@H](C)CN(c2ccc(C(F)F)c3ncccc23)C1 (stereo partly drawn) [Compound 302, N-[(3R,5S)-1-[8-(difluoromethyl)quinolin-5-yl]-5-methylpiperidin-3-yl]-2-hydroxypropanamide]	1000 to 10000
C[C@H]1C[C@@H](NC(=O)CN2CC(O)C2)CN(c2ccc(C(F)F)c3ncccc23)C1 [Compound 308, N-[(3R,5S)-1-[8-(difluoromethyl)quinolin-5-yl]-5-methylpiperidin-3-yl]-2-(3-hydroxyazetidin-1-yl)acetamide]	1000 to 10000
CC(C(=O)N[C@@H]1C[C@H](C)CN(c2ccc(C(F)F)c3ncccc23)C1)N1CC(O)C1 (stereo partly drawn) [Compound 309, N-[(3R,5S)-1-[8-(difluoromethyl)quinolin-5-yl]-5-methylpiperidin-3-yl]-2-(3-hydroxyazetidin-1-yl)propanamide]	< 1000
C[C@H]1C[C@@H](NC(=O)CC2CC2(F)F)CN(c2ccc(C(F)F)c3ncccc23)C1 (stereo partly drawn) [Compound 310, 2-(2,2-difluorocyclopropyl)-N-[(3R,5S)-1-[8-(difluoromethyl)quinolin-5-yl]-5-methylpiperidin-3-yl]acetamide]	< 1000
CC(C(=O)N[C@@H]1C[C@H](C)CN(c2ccc(C(F)F)c3ncccc23)C1)N1CC(F)(F)C1 (stereo partly drawn) [Compound 311, 2-(3,3-difluoroazetidin-1-yl)-N-[(3R,5S)-1-[8-(difluoromethyl)quinolin-5-yl]-5-methylpiperidin-3-yl]propanamide]	1000 to 10000
C[C@H]1C[C@@H](NC(=O)CC2CNC2)CN(c2ccc(C(F)F)c3ncccc23)C1 [Compound 312, 2-(azetidin-3-yl)-N-[(3R,5S)-1-[8-(difluoromethyl)quinolin-5-yl]-5-methylpiperidin-3-yl]acetamide]	1000 to 10000
CC(C(=O)N[C@@H]1C[C@H](C)CN(c2ccc(C(F)F)c3ncccc23)C1)N1CCC(O)CC1 (stereo partly drawn) [Compound 313, N-[(3R,5S)-1-[8-(difluoromethyl)quinolin-5-yl]-5-methylpiperidin-3-yl]-2-(4-hydroxypiperidin-1-yl)propanamide]	< 1000
C[C@H]1C[C@@H](NC(=O)CN2CCCN(C)CC2)CN(c2ccc(C(F)F)c3ncccc23)C1 [Compound 314, N-[(3R,5S)-1-[8-(difluoromethyl)quinolin-5-yl]-5-methylpiperidin-3-yl]-2-(4-methyl-1,4-diazepan-1-yl)acetamide]	< 1000
C[C@H]1C[C@@H](NC(=O)CC(C)(C)CN)CN(c2ccc(C(F)F)c3ncccc23)C1 [Compound 315, 4-amino-N-[(3R,5S)-1-[8-(difluoromethyl)quinolin-5-yl]-5-methylpiperidin-3-yl]-3,3-dimethylbutanamide]	< 1000
C[C@H]1C[C@@H](NC(=O)CC2CCN(C)CC2)CN(c2ccc(C(F)F)c3ncccc23)C1 [Compound 316, N-[(3R,5S)-1-[8-(difluoromethyl)quinolin-5-yl]-5-methylpiperidin-3-yl]-2-(1-methylpiperidin-4-yl)acetamide]	< 1000
C[C@H]1C[C@@H](NC(=O)C2CC(F)(F)C2)CN(c2ccc(C(F)F)c3ncccc23)C1 [Compound 317, N-[(3R,5S)-1-[8-(difluoromethyl)quinolin-5-yl]-5-methylpiperidin-3-yl]-3,3-difluorocyclobutane-1-carboxamide]	> 10000
C[C@H]1C[C@@H](NC(=O)CC2CCCN(C)C2)CN(c2ccc(C(F)F)c3nccnc23)C1 (stereo partly drawn) [Compound 318, N-[(3R,5S)-1-[8-(difluoromethyl)quinoxalin-5-yl]-5-methylpiperidin-3-yl]-2-(1-methylpiperidin-3-yl)acetamide]	< 1000
C[C@H]1C[C@@H](NC(=O)CC2CCN(C)C2)CN(c2ccc(C(F)F)c3nccnc23)C1 (stereo partly drawn) [Compound 319, N-[(3R,5S)-1-[8-(difluoromethyl)quinoxalin-5-yl]-5-methylpiperidin-3-yl]-2-(1-methylpyrrolidin-3-yl)acetamide]	< 1000

More lines, now with the values ahead:

IC50 [nM]	Compound
< 1000	C[C@H]1C[C@@H](NC(=O)CC2CCCN(C)C2)CN(c2ccc(C(F)(F)F)c3nccnc23)C1 (stereo partly drawn) [Compound 293, N-[(3R,5S)-5-methyl-1-[8-(trifluoromethyl)quinoxalin-5-yl]piperidin-3-yl]-2-(1-methylpiperidin-3-yl)acetamide]
< 1000	C[C@H]1C[C@@H](NC(=O)C(N)C2CC2)CN(c2ccc(C(F)(F)F)c3nccnc23)C1 (stereo partly drawn) [Compound 294, 2-amino-2-cyclopropyl-N-[(3R,5S)-5-methyl-1-[8-(trifluoromethyl)quinoxalin-5-yl]piperidin-3-yl]acetamide]
< 1000	C[C@H]1C[C@@H](NC(=O)CC2CCN(C)C2)CN(c2ccc(C(F)(F)F)c3nccnc23)C1 (stereo partly drawn) [Compound 295, N-[(3R,5S)-5-methyl-1-[8-(trifluoromethyl)quinoxalin-5-yl]piperidin-3-yl]-2-(1-methylpyrrolidin-3-yl)acetamide]
< 1000	C[C@H]1C[C@@H](NC(=O)CN2CC(O)C2)CN(c2ccc(C(F)(F)F)c3nccnc23)C1 [Compound 296, 2-(3-hydroxyazetidin-1-yl)-N-[(3R,5S)-5-methyl-1-[8-(trifluoromethyl)quinoxalin-5-yl]piperidin-3-yl]acetamide]
< 1000	CC(C(=O)N[C@@H]1C[C@H](C)CN(c2ccc(C(F)(F)F)c3nccnc23)C1)N1CC(O)C1 (stereo partly shown) [Compound 297]
< 1000	C[C@H]1C[C@@H](NC(=O)CC2CC2(F)F)CN(c2ccc(C(F)(F)F)c3nccnc23)C1 (stereo partly drawn) [Compound 298, 2-(2,2-difluorocyclopropyl)-N-[(3R,5S)-5-methyl-1-[8-(trifluoromethyl)quinoxalin-5-yl]piperidin-3-yl]acetamide]
< 1000	C[C@H]1C[C@@H](NC(=O)CC2CNC2)CN(c2ccc(C(F)(F)F)c3nccnc23)C1 [Compound 300, 2-(azetidin-3-yl)-N-[(3R,5S)-5-methyl-1-[8-(trifluoromethyl)quinoxalin-5-yl]piperidin-3-yl]acetamide]
< 1000	C[C@H]1C[C@@H](NC(=O)CC(C)(C)CN)CN(c2ccc(C(F)(F)F)c3nccnc23)C1 [Compound 301, 4-amino-3,3-dimethyl-N-[(3R,5S)-5-methyl-1-[8-(trifluoromethyl)quinoxalin-5-yl]piperidin-3-yl]butanamide]
< 1000	C[C@H]1C[C@@H](NC(=O)CC2CCCN(C)C2)CN(c2ccc(C(F)F)c3ncccc23)C1 (stereo partly drawn) [Compound 303, N-[(3R,5S)-1-[8-(difluoromethyl)quinolin-5-yl]-5-methylpiperidin-3-yl]-2-(1-methylpiperidin-3-yl)acetamide]
< 1000	C[C@H]1C[C@@H](NC(=O)CN2CC(N)C2)CN(c2ccc(C(F)F)c3ncccc23)C1 [Compound 304, 2-(3-aminoazetidin-1-yl)-N-[(3R,5S)-1-[8-(difluoromethyl)quinolin-5-yl]-5-methylpiperidin-3-yl]acetamide]
< 1000	CC(C(=O)N[C@@H]1C[C@H](C)CN(c2ccc(C(F)F)c3ncccc23)C1)N1CC(N)C1 (stereo partly drawn) [Compound 305, 2-(3-aminoazetidin-1-yl)-N-[(3R,5S)-1-[8-(difluoromethyl)quinolin-5-yl]-5-methylpiperidin-3-yl]propanamide]
< 1000	C[C@H]1C[C@@H](NC(=O)C(N)C2CC2)CN(c2ccc(C(F)F)c3ncccc23)C1 (stereo partly drawn) [Compound 306, 2-amino-2-cyclopropyl-N-[(3R,5S)-1-[8-(difluoromethyl)quinolin-5-yl]-5-methylpiperidin-3-yl]acetamide]
< 1000	C[C@H]1C[C@@H](NC(=O)CC2CCN(C)C2)CN(c2ccc(C(F)F)c3ncccc23)C1 (stereo partly drawn) [Compound 307, N-[(3R,5S)-1-[8-(difluoromethyl)quinolin-5-yl]-5-methylpiperidin-3-yl]-2-(1-methylpyrrolidin-3-yl)acetamide]
